One test deals with T1, Bile acid receptor (Homo sapiens, UniProt Q96RI1).
T1 sequence (Q96RI1 whole entry): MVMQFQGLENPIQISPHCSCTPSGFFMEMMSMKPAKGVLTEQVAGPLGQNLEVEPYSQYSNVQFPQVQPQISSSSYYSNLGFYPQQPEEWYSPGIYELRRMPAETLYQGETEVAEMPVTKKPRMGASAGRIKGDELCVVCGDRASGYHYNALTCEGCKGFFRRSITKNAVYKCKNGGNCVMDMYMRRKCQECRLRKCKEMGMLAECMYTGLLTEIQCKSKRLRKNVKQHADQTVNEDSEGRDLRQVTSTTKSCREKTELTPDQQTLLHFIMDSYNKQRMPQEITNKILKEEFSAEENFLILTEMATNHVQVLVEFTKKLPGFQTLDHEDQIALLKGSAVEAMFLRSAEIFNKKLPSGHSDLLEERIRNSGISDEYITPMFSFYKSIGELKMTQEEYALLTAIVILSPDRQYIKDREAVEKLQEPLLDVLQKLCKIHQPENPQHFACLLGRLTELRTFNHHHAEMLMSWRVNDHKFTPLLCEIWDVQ
Nature of the test: Agonist activity at human GST-fused FXR LBD assessed as cofactor peptide interaction with receptor ligand binding domain by FRET assay.

The target of test [1] is T2, Bile acid receptor (Homo sapiens) (UniProt Q96RI1).
T2 sequence (whole entry): T1 sequence (Q96RI1 whole entry)
Nature of the test: Agonist activity at human full length FXR transfected in HEK293 cells coexpressing pTRexDest/pGL2promotor assessed as luciferase activity by direct reporter cellular assay relative to GW-4064. The test is classed as functional, cell-based.

The target of test [2] is T3, Mineralocorticoid receptor (Homo sapiens, UniProt P08235).
T3 sequence (P08235 whole entry): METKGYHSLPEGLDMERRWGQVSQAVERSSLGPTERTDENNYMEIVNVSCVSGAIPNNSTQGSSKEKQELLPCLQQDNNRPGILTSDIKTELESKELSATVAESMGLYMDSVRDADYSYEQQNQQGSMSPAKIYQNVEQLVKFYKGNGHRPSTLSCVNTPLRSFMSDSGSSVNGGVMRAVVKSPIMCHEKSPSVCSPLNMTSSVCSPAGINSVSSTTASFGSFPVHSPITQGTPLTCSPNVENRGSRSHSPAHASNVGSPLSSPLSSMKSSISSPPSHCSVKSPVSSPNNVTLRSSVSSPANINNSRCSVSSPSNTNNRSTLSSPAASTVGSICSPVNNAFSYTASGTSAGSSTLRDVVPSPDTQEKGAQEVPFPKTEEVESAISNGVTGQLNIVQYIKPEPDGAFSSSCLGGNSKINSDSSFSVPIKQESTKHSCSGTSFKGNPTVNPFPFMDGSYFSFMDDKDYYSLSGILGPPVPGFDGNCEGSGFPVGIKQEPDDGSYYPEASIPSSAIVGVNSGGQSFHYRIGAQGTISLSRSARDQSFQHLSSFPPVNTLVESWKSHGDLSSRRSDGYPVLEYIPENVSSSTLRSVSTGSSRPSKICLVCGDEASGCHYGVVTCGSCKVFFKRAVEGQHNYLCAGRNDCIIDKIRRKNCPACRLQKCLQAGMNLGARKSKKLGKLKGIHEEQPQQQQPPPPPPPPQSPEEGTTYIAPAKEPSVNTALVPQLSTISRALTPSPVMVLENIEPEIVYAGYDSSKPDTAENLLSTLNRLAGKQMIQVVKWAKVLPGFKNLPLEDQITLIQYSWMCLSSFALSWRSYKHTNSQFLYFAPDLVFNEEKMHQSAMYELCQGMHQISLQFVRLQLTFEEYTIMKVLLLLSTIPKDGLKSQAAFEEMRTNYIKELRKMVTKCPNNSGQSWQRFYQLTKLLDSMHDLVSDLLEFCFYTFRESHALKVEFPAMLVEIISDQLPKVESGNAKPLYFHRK
Nature of the test: Agonist activity at mineralocorticoid receptor-LBD expressed in HEK293 cells assessed as Gal4-DBD interaction by cellular mammalian one hybrid assay. The test is classed as functional, cell-based.

The target of test [3] is T4, Peroxisome proliferator-activated receptor alpha (Homo sapiens) (UniProt Q07869).
T4 sequence (whole entry): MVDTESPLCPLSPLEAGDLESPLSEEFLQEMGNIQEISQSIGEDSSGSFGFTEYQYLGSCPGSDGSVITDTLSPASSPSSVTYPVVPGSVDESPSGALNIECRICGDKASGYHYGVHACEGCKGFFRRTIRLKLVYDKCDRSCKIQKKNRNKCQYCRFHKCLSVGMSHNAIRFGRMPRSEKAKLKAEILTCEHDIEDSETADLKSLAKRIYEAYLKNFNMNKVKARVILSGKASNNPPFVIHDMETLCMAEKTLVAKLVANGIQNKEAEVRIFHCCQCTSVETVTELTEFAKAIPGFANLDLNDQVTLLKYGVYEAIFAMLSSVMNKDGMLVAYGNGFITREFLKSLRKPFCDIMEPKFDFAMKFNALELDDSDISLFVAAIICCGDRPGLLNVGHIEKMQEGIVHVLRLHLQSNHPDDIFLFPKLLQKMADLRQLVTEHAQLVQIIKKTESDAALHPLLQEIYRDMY
In words: Agonist activity at PPARalpha-LBD expressed in HEK293 cells assessed as Gal4-DBD interaction by cellular mammalian one hybrid assay relative to GW-7467. The test is classed as functional, cell-based.

In test [4] the target is T5, Peroxisome proliferator-activated receptor delta (Homo sapiens) (UniProt Q03181).
T5 sequence (whole entry): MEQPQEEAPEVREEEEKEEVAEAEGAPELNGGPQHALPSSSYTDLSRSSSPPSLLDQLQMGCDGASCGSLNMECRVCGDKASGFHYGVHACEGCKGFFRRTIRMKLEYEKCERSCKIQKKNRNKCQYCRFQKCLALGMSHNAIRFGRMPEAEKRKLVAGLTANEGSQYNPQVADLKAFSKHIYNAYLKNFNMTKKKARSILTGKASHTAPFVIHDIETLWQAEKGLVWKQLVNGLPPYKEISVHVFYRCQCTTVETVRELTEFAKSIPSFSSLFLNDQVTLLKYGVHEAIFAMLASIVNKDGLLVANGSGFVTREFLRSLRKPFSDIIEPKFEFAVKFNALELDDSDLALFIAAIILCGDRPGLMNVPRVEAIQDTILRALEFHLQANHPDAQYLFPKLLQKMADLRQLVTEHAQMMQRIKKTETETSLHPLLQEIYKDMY
Nature of the test: Agonist activity at PPAR-beta/delta-LBD expressed in HEK293 cells assessed as Gal4-DBD interaction by cellular mammalian one hybrid assay relative to control. Type of test: functional, cell-based.

As to `CC(C)c1onc(-c2c(Cl)cccc2Cl)c1COc1ccc(N(C)Cc2ccc(C(=O)O)cc2)c(C(F)(F)F)n1`, the EC50 on Bile acid receptor was 22 nM; in test [2] it was more than 10000 nM. Besides, the results for the Efficacy in test [1], in test [3] and in test [4] were 57%, 0% and 0%, respectively.
For `CN(Cc1ccc(C(=O)O)cc1)c1ccc(OCc2c(-c3c(Cl)cccc3Cl)noc2C2CC2)nc1C(F)(F)F`, the figures for the half-maximal effective concentration (EC50) (at Bile acid receptor; in test [2]) were 12 nM and more than 10000 nM, respectively. Besides, the Efficacy was found to be 60% in test [1], 0% in test [3] and 0% in test [4].
Take `CN(Cc1cccc(C(=O)O)c1)c1ccc(OCc2c(-c3c(Cl)cccc3Cl)noc2C2CC2)nc1C(F)(F)F`: the values for the EC50 (at Bile acid receptor; in test [2]) were 3 nM and more than 10000 nM, respectively. The Efficacy came out at 43% in test [1], 15% in test [3] and 0% in test [4].
